{"source": "patent US20160346295A1", "about": "“Selective Estrogen Receptor Modulators With Short Half-Lives and Uses Thereof” (REPROS THERAPEUTICS INC., priority 2012, published 2016)", "key": {"[1]": {"tested_on": "rodent, baboon, rabbit and dog models", "assay": "Animal safety pharmacology studies", "assay_type": "in vivo"}, "[2]": {"tested_on": "adult human males with secondary hypogonadism", "assay": "One year open label extension study, long term oral trans-clomiphene 12.5 mg daily"}, "[3]": {"conditions": "human, in vivo, po", "procedure": "A clinical study to estimate the pharmacokinetic (PK) profile of enclomiphene (trans-clomiphene) following single-dose and steady-state doses administered orally. 52 adult males between 18 and 75 years of age with total serum testosterone level<250 ng/dl or between 250 to 300 ng/dl and FSH/LH levels within the normal range, were randomly assigned to one of the following five treatment groups: (i) 12.5 mg enclomiphene/day (ii) 25 mg enclomiphene/day (iii) 50 mg enclomiphene/day (trans-clomiphene) (iv) Androgel® (1% topical testosterone applied daily) or (v) placebo. Enclomiphene citrate was provided as 12.5 mg capsules and orally administered once (12.5 mg arm) twice (25 mg arm) or four times (50 mg arm) per day for 14 consecutive days. Single-dose and steady-state PK assessments were preformed in a subset of these males following the first (Day 1) and last (Day 14) dose. […] Pre-dose plasma enclomiphene concentrations were also measured on Day 11 using a single blood sample. […] PK parameters were calculated using noncompartmental methods for subjects randomized to enclomiphene. The accumulation ratio, defined as the AUC0-24 on Day 14, divided by the AUC0-24 value on Day 1 was calculated.\nThe accumulation index for each enclomiphene dose group was calculated based on the arithmetic mean of the individual ratio of AUC(0-24) on Day 14 divided by AUC(0-24) on Day 1. […]"}, "[4]": {"conditions": "blood plasma; cited from earlier work"}, "[5]": {"conditions": "majority or all of the timepoints"}}, "data": [{"smiles": "CCN(CC)CCOc1ccc(/C(=C(\\Cl)c2ccccc2)c2ccccc2)cc1", "note": "[Enclomiphene, trans-clomiphene]", "values": [{"measurement": "adverse effects in the central nervous, respiratory or cardiovascular systems", "setting": "[1]", "result": "no adverse effects"}, {"measurement": "other questionnaires of sexual function (DISF-SR II (M), MSDS)", "setting": "[2]; 12.5 mg daily oral", "result": "no concomitantly significant changes"}, {"measurement": "overall mean increases in total serum testosterone from baseline to 1 year", "setting": "[2]; 12.5 mg daily oral", "result": "statistically significant"}, {"measurement": "subjects who experienced serious adverse effects (SAEs)", "setting": "[2]; 12.5 mg daily oral up to one year", "result": 5, "unit": "%"}, {"measurement": "subjects who experienced at least one adverse event considered related to the study drug", "setting": "[2]; 19/101 subjects", "result": 18.8, "unit": "%"}, {"measurement": "subjects with mean total serum testosterone levels within the normal reference range", "setting": "[2]; at 1 year, normal range 300-1040 ng/dl, 12.5 mg daily oral", "result": 62.5, "unit": "%"}, {"measurement": "discontinuation due to a reduction in visual acuity", "setting": "[2]; during the study", "result": "No subjects were discontinued"}, {"measurement": "hematology, blood chemistry, urinalysis, vital signs, physical exam, PSA values, ECG readings", "setting": "[2]; during the study", "result": "no clinically relevant changes"}, {"measurement": "subjects discontinued from the study due to AEs", "setting": "[2]; during the study", "result": "Nine"}, {"measurement": "subjects who experienced at least one adverse event", "setting": "[2]; during the study", "result": 51.5, "unit": "%"}, {"measurement": "subjects with events considered severe", "setting": "[2]; during the study", "result": "nine"}, {"measurement": "libido, libido component of IIEF questionnaire", "setting": "[2]; from baseline at months 4, 6 and 12", "result": "Statistically significant improvements"}, {"measurement": "DHT/testosterone ratio change", "setting": "[2]; [5]", "result": "Statistically significant increases"}, {"measurement": "FSH change", "setting": "[2]; [5]", "result": "Statistically significant increases"}, {"measurement": "LH change", "setting": "[2]; [5]", "result": "Statistically significant increases"}, {"measurement": "dihydrotestosterone (DHT) change", "setting": "[2]; [5]", "result": "Statistically significant increases"}, {"measurement": "estradiol change", "setting": "[2]; [5]", "result": "Statistically significant increases"}, {"measurement": "high-density lipoprotein cholesterol (HDL-C) change from baseline", "setting": "[2]; [5]", "result": "Statistically significant decreases"}, {"measurement": "prolactin change", "setting": "[2]; [5]", "result": "statistically significant decreases"}, {"measurement": "sex hormone binding globulin (SHBG) change", "setting": "[2]; [5]", "result": "Statistically significant increases"}, {"measurement": "total cholesterol (TC) change from baseline", "setting": "[2]; [5]", "result": "Statistically significant decreases"}, {"measurement": "triglycerides change from baseline", "setting": "[2]; [5]", "result": "Statistically significant decreases"}, {"measurement": "testicular size, significance of increase", "setting": "[2]; orchidometer", "result": "statistically significant increase was observed at Month 6 only"}, {"measurement": "half life of enclomiphene based on the PK data obtained", "setting": "[3]", "result": "~10.5", "unit": "h"}]}, {"smiles": "OCCOc1ccc(/C(=C(/CCCl)c2ccccc2)c2ccccc2)cc1", "note": "[Ospemifene]", "values": [{"measurement": "Half-Life", "setting": "[4]", "result": 26, "unit": "h"}]}, {"smiles": "CC/C(=C(\\c1ccc(I)cc1)c1ccc(OCCN2CCCC2)cc1)c1ccccc1", "note": "[Idoxifene]", "values": [{"measurement": "Half-Life", "setting": "[4]", "result": 3, "unit": "weeks"}]}, {"smiles": "COc1ccc2c(c1)OC(C)(C)C(c1ccccc1)C2c1ccc(OCCN2CCCC2)cc1", "note": "(stereo not shown) [Ormeloxifene]", "values": [{"measurement": "Half-Life", "setting": "[4]", "result": 170, "unit": "h"}]}, {"smiles": "COc1ccc2c(c1)OC(C)(C)[C@@H](c1ccccc1)[C@@H]2c1ccc(OCCN2CCCC2)cc1", "note": "[Levormeloxifene, (−)-3R,4R-trans-7-methoxy-2,2-dimethyl-3-phenyl-4-{4-[2-(pyrrolidin-1-yl)ethoxy]phenyl} chromane]", "values": [{"measurement": "Half-Life", "setting": "[4]", "result": 24, "unit": "h"}]}, {"smiles": "CC/C(=C(\\c1ccccc1)c1ccc(OCCN(C)C)cc1)c1ccccc1", "note": "[Tamoxifen]", "values": [{"measurement": "Half-Life", "setting": "[4]", "result": "120 to 170", "unit": "h"}]}, {"smiles": "Oc1ccc2c(c1)CC[C@H](c1ccccc1)[C@@H]2c1ccc(OCCN2CCCC2)cc1", "note": "[Lasofoxifene]", "values": [{"measurement": "Half-Life", "setting": "[4]", "result": 140, "unit": "h"}]}, {"smiles": "CC/C(=C(/c1ccc(OCCN(C)C)cc1)c1cccc(O)c1)c1ccccc1", "note": "[Droloxifene, E-1-[4′-(2-dimethylaminoethoxy)phenyl]-1-(3′-hydroxyphenyl)-2-phenyl-1-butene]", "values": [{"measurement": "Half-Life", "setting": "[4]", "result": 24, "unit": "h"}]}, {"smiles": "CCN(CC)CCOc1ccc(C(=C(Cl)c2ccccc2)c2ccccc2)cc1", "note": "[Clomid]", "values": [{"measurement": "Half-Life", "setting": "[4]", "result": "120 to 170", "unit": "h"}]}, {"smiles": "O=C(c1ccc(OCCN2CCCCC2)cc1)c1c(-c2ccc(O)cc2)sc2cc(O)ccc12", "note": "[Raloxifene, 6-hydroxy-2(4-hydroxyphenyl)-3-[4-(2-piperdinoethoxy)benzoyl]benzo[b]thiophene]", "values": [{"measurement": "Half-Life", "setting": "[4]", "result": 27, "unit": "h"}]}, {"smiles": "COc1ccc(-c2sc3cc(O)ccc3c2Oc2ccc(OCCN3CCCCC3)cc2)cc1", "note": "[Arzoxifene]", "values": [{"measurement": "Half-Life", "setting": "[4]", "result": 30, "unit": "h"}]}]}
